According to PubChem BioAssay (NCI):
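96-well plates; 48 h exposure; 5 concentrations. Endpoints by linear interpolation between flanking doses. Not reached: highest tested concentration assigned. Here, GI50 denotes the concentration required for 50% inhibition of growth. Definition used: TGI = concentration required for complete inhibition of growth.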

Assays:
Assay in all cases: NCI anticancer screen, dose series, 48 h
[1] = test system: UO-31 renal
[2] = test system: SW-620 colon
[3] = test system: HOP-62 NSCLC
[4] = test system: OVCAR-3 ovarian
[5] = test system: MOLT-4 leukemia
[6] = test system: TK-10 renal
[7] = test system: NCI-H226 lung
[8] = test system: UACC-62 melanoma
[9] = test system: PC-3 prostate
[10] = test system: SK-MEL-5 melanoma

| Compound | GI50 [1] [µM] | TGI [1] [µM] | GI50 [2] [µM] | TGI [2] [µM] | GI50 [3] [µM] | GI50 [4] [µM] | TGI [4] [µM] | GI50 [5] [µM] | TGI [5] [µM] | GI50 [6] [µM] | TGI [6] [µM] | GI50 [7] [µM] | GI50 [8] [µM] | TGI [8] [µM] | GI50 [9] [µM] | TGI [9] [µM] | GI50 [10] [µM] | TGI [10] [µM] | TGI [3] [µM] | TGI [7] [µM] |
| --- | --- | --- | --- | --- | --- | --- | --- | --- | --- | --- | --- | --- | --- | --- | --- | --- | --- | --- | --- | --- |
| O=C1c2cc3c(cc2-c2c1c1cc(Cl)c(Cl)cc1c(=O)n2CCCn1ccnc1)OCO3 | < 0.01 | > 100 | < 0.01 | > 100 | < 0.01 | 0.0425 | 18.8 | < 0.01 | 10.9 | 0.085 | > 100 | < 0.01 | < 0.01 | 0.0117 | 0.0171 | > 100 | < 0.01 | 0.0407 | – | – |
| COc1ccc(N(C)c2nc(C)nc3ccccc23)cc1 | 0.0103 | 60.4 | < 0.01 | > 100 | < 0.01 | < 0.01 | < 0.01 | < 0.01 | > 100 | – | > 47.5 | < 0.01 | < 0.01 | > 49.6 | < 0.01 | 36.8 | < 0.01 | < 0.01 | > 100 | 0.534 |
| COc1ccccc1C(=O)/C=C/c1cc2cccc(OC)c2[nH]c1=O | 0.115 | 1.68 | 0.0158 | 1.56 | 0.0668 | 0.0343 | 0.6 | 0.0408 | 5.2 | 1.14 | 11.5 | 0.0716 | 0.0412 | 1.93 | 0.0503 | 2.27 | 0.0374 | 0.843 | 4.9 | 3.47 |
| C[C@@H](c1ccc2nccn2c1)n1nnc2ncc(-c3cnn(C)c3)nc21 | > 100 | > 100 | > 100 | > 100 | > 100 | > 100 | > 100 | > 100 | > 100 | > 100 | > 100 | > 100 | > 100 | > 100 | > 100 | > 100 | > 100 | > 100 | > 100 | > 100 |
| OB([O][Hg][c]1ccccc1)[O][Hg][c]1ccccc1 | 0.539 | 1.63 | 0.191 | 0.5 | 1.04 | 0.0812 | 0.213 | 0.177 | 0.643 | – | – | 1.52 | 0.454 | 1.69 | 0.758 | 2.42 | 0.538 | 1.85 | 3.39 | 4.33 |
| Cc1ccc(S(=O)(=O)NC(CCC(=O)Nc2ccc(Cl)cc2)C(=O)Nc2ccc(Cl)cc2)cc1 (configuration not stated) | 0.401 | 7.28 | 0.555 | 8.59 | 0.62 | 0.93 | 5.8 | 0.691 | 7.66 | 2.95 | 10 | 0.841 | 0.0967 | 0.367 | 0.396 | 6.33 | 0.235 | 3.94 | 2.07 | 5.67 |
| O=S(=O)(c1ccc(NC(=S)N/N=C/c2ccccc2O)cc1)N1CCCCC1 | – | > 41.9 | – | 21 | – | – | 6.34 | – | 2.13 | – | 4.23 | – | – | 0.262 | – | 21.1 | – | 0.176 | 4.45 | 0.803 |
| COc1cc2cc(Oc3ccc(NC(=O)Nc4cccc(C(F)(F)F)c4)cc3)c(C)nc2cc1OCCN1CCCCC1 | 1.45 | 2.79 | 1.98 | 3.6 | – | 1.71 | 3.15 | – | – | 1.83 | 3.36 | 1.92 | 1.75 | 3.15 | 1.41 | 2.77 | 1.71 | 3.16 | – | 4.62 |
| C1CCC([PH+](C2CCCCC2)C2CCCCC2[PH+](C2CCCCC2)C2CCCCC2)CC1.[Au].[CH-]1CCCCC1C1CCCC[N-]1 (configuration not stated) | 1.36 | 2.69 | – | – | 0.314 | 0.286 | 1.1 | 0.366 | > 100 | 0.463 | 1.86 | – | 0.254 | 0.979 | 0.249 | 5.26 | 0.179 | 0.332 | 1.89 | – |
| O=C(Nc1ccncc1)C(=O)c1cn(S(=O)(=O)c2ccc(Br)cc2)c2ccccc12 | > 100 | > 100 | 4.18 | > 100 | 3.67 | 4.54 | > 100 | – | – | 15.1 | > 100 | 20.9 | 3.79 | > 100 | 8.87 | > 100 | 3.5 | 37.5 | 38.7 | > 100 |
| COc1cc2c3c(n(C)c(=O)c2cc1OC)-c1cc2c(cc1/C3=C\CCCCN)OCO2 | 3.28 | 13.5 | 6.36 | 24.8 | – | 16.9 | 33.4 | 5.78 | > 100 | 3.95 | 17.6 | – | 12.5 | 37.8 | 20 | 62.1 | 13.2 | 27.3 | – | – |
| N#C/C(=C\c1c(-c2ccccc2)[nH]c2ccccc12)C(=O)c1ccc(Cl)cc1 | 5.85 | 36.3 | 0.554 | > 100 | 5.41 | 1.52 | 4.65 | 1.01 | 8.87 | 8.6 | 43.8 | 7.5 | 1.46 | 33.9 | 3.42 | > 70.3 | 0.782 | 12.5 | 26 | 47.2 |
| Cc1cc2c(C)c3cc(C)c(N)cc3nc2cc1N | 2.02 | 8.79 | 0.38 | 3.57 | 1.11 | 1.18 | 5.35 | 0.43 | 6.23 | 1.31 | 5.39 | 0.864 | 0.998 | 3.58 | 1.11 | 7.06 | 1.73 | 5.28 | 7.08 | 4.56 |
| O/N=C1\CCc2cc(-c3nc(C4CCNCC4)[nH]c3-c3ccncc3)ccc21 | > 25 | > 25 | > 25 | > 25 | > 25 | > 25 | > 25 | > 25 | > 25 | > 25 | > 25 | > 25 | 0.24 | > 25 | > 25 | > 25 | > 25 | > 25 | > 25 | > 25 |
| O=C(Nc1n[nH]c2nc(-c3ccco3)c(Br)cc12)C1CC1 | > 25 | > 25 | > 25 | > 25 | > 25 | > 25 | > 25 | > 25 | > 25 | > 25 | > 25 | > 25 | > 25 | > 25 | > 25 | > 25 | > 16.4 | > 25 | > 25 | > 25 |
| Cc1ccc(S(=O)(=O)N/N=C/C(Br)=C(/Br)C(=O)O)cc1 | – | 20 | – | 14 | – | – | 20.2 | – | 3.51 | – | 22.9 | – | – | 22.3 | – | 29.3 | – | 25.8 | 43.6 | 27.9 |
| O=C1C2CC(Cl)C(SSC3CC4C(=O)N(SC(Cl)(Cl)C(Cl)Cl)C(=O)C4CC3Cl)CC2C(=O)N1SC(Cl)(Cl)C(Cl)Cl (configuration not stated) | – | 4.82 | – | 5.09 | – | – | 5.07 | – | 1.35 | – | 7.07 | – | – | 4.49 | – | 2.79 | – | 4.55 | 8.64 | 26.4 |
| Cc1ccc2c(c1)NC(c1ccc(C(=O)O)cc1)c1cccn1-2 (configuration not stated) | – | – | – | > 100 | – | – | > 100 | – | > 100 | – | > 100 | – | – | > 100 | – | > 100 | – | > 100 | 58.6 | > 100 |
| Cc1ccc(S(=O)(=O)N2CCCSCCSCCCSCC2)cc1 | – | > 100 | – | > 100 | – | – | > 100 | – | > 100 | – | > 100 | – | – | > 100 | – | > 100 | – | > 100 | > 100 | – |
| CCCCCCCCCCCCCCCCCCNC(=O)[C@H]1CSC(c2ccc(OC)c(F)c2)N1 (some centres not stated) | > 32.8 | > 48.4 | 1.5 | 5.71 | 2.16 | 7.84 | > 50.2 | 1.48 | 9.18 | 28.3 | > 57.7 | 2.28 | 1.72 | 3.82 | 6.09 | 28.3 | 2.92 | 10.3 | 5.12 | 6.86 |
| Cc1cc(NC(=O)C2c3ccccc3C(=O)N(CC(C)C)C2c2cccs2)no1 (configuration not stated) | 30.2 | > 100 | > 100 | > 100 | > 100 | 90.1 | > 100 | 43.1 | > 100 | > 100 | > 100 | > 100 | 86 | > 100 | 34.8 | > 100 | 73.2 | > 100 | > 100 | > 100 |
| Cn1cc(-c2ccc(=O)n(Cc3cccc(-c4ncc(OCCN5CCOCC5)cn4)c3)n2)cn1 | 64.8 | > 100 | > 100 | > 100 | > 62.7 | 58 | > 100 | 36.4 | > 100 | 99 | > 100 | 23.5 | 48.7 | > 100 | 49.1 | > 100 | 19.6 | 59.1 | > 100 | > 100 |
| Cc1ccc(-c2c(C#N)c(N)nc(N3CCOCC3)c2C#N)o1 | 21.2 | 84 | > 100 | > 100 | 26.4 | – | – | 61.9 | > 100 | 35.4 | > 100 | 46.8 | 39 | > 100 | 30.6 | > 100 | 40.5 | > 100 | > 100 | > 100 |
| O=C1C=C[C@]2(C[C@@H](c3cccc(C(F)(F)F)c3)O[C@@H](c3cccc(C(F)(F)F)c3)O2)O1 | 1.84 | 5.08 | 1.76 | 5.14 | 5.08 | 1.6 | 3.71 | – | – | 1.66 | 3.22 | 2.18 | 1.77 | 4.63 | 2.4 | 8.27 | 1.8 | 3.72 | 18.2 | 10.5 |
| CC1(C)N=C(N)N=C(N)N1c1cccc(/C=C/C=C/c2cccc([N+](=O)[O-])c2)c1 | 55.2 | > 100 | 2.56 | 18.8 | 18.1 | 1.89 | 13.1 | 5.9 | 23.6 | – | – | 10.9 | 3.74 | 17.9 | 0.448 | 11.8 | 2.96 | 12.5 | 35.9 | 34.1 |
| COc1ccc(/C(=C/c2cc(OC)c(OC)c(OC)c2)[N+](=O)[O-])cc1 | 1.3 | 2.62 | 1.71 | 3.91 | 2.64 | 1.66 | 3.14 | – | – | 1.88 | 3.59 | 2.29 | 1.56 | 3.07 | 1.95 | 3.88 | 1.69 | 3.11 | 5.93 | 5.78 |
| CC(=O)c1ccc(Nc2cc(-n3ccnc3)nc3ccccc23)cc1 | 66.7 | > 100 | 49.1 | > 100 | 4.26 | – | – | 10.7 | 58.1 | 15.6 | 63 | 24.4 | 19.2 | 92.8 | 20.5 | > 100 | 15.6 | 53 | 29.4 | 92.1 |
| NC(N)=NC(CC(=O)O)c1ccccc1 (configuration not stated) | – | > 100 | – | > 100 | – | – | > 100 | – | – | – | > 100 | – | – | > 100 | – | > 100 | – | > 100 | > 100 | – |
